Measurements: ChEMBL document CHEMBL1201862, “PubChem BioAssay data set” (2004)
Blank lines part the entries; values can stand above or below the compound they belong to. Activity calls are given as the source filed them.

Key:
Format in all cases: functional
[1] = target: Mitogen-activated protein kinase kinase kinase kinase 4 (Homo sapiens, UniProt O95819)
[2] = target: Calcium/calmodulin-dependent protein kinase type II subunit delta (Homo sapiens, UniProt Q13557)
[3] = target: Dual specificity protein kinase CLK4 (Homo sapiens, UniProt Q9HAZ1)
[4] = target: Casein kinase I isoform alpha (Homo sapiens, UniProt P48729)
[5] = target: Serine/threonine-protein kinase N2 (Homo sapiens, UniProt Q16513)
[6] = target: Cyclin-dependent kinase 8 (Homo sapiens, UniProt P49336); assay: Navigating the Kinome. Panel member name: CDK8
[7] = target: Serine/threonine-protein kinase D3 (Homo sapiens, UniProt O94806);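 also: determined within a kinase panel screen, with PRKCN as the panel member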
Serine/threonine-protein kinase D3, sequence (O94806 whole entry): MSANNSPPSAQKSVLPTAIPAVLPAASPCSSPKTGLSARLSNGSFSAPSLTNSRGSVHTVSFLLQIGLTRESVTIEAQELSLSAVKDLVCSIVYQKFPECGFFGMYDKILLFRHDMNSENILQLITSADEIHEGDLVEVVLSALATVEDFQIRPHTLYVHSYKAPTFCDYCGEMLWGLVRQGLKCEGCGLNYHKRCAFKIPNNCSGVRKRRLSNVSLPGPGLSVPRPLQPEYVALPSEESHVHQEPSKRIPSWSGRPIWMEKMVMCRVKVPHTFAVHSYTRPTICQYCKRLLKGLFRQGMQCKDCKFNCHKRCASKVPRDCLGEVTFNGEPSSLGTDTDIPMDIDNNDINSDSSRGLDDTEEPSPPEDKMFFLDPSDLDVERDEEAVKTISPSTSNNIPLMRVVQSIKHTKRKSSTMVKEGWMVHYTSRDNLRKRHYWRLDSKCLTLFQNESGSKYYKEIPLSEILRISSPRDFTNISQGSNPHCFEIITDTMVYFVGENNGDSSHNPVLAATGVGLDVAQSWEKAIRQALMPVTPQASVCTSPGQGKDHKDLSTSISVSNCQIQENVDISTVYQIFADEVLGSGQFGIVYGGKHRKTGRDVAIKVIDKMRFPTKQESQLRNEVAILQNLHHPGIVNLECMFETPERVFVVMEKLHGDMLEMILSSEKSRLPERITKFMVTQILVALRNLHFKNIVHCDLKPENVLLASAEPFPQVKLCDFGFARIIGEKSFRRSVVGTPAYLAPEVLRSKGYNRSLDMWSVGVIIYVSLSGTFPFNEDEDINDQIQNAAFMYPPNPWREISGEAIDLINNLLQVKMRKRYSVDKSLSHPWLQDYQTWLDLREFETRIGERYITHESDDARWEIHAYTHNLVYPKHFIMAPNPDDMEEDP

[8] = target: Serine/threonine-protein kinase pim-1 (Homo sapiens, UniProt P11309)
Serine/threonine-protein kinase pim-1, sequence (P11309 whole entry): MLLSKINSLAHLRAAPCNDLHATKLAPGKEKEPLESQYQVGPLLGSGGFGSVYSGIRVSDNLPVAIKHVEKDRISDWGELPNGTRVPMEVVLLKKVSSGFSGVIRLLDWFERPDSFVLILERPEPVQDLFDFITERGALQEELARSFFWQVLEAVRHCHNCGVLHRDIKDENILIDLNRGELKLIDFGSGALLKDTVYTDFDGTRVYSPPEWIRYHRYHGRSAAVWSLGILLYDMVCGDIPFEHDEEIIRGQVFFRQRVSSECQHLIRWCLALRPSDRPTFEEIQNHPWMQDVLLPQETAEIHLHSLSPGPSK

[9] = target: Homeodomain-interacting protein kinase 2 (Homo sapiens, UniProt Q9H2X6);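 also: measured within a kinome-wide kinase profiling panel, HIPK2 being one panel member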
[10] = target: Death-associated protein kinase 3 (Homo sapiens, UniProt O43293);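 also: measured as one member of a kinome-wide profiling panel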
Death-associated protein kinase 3, sequence (O43293 whole entry): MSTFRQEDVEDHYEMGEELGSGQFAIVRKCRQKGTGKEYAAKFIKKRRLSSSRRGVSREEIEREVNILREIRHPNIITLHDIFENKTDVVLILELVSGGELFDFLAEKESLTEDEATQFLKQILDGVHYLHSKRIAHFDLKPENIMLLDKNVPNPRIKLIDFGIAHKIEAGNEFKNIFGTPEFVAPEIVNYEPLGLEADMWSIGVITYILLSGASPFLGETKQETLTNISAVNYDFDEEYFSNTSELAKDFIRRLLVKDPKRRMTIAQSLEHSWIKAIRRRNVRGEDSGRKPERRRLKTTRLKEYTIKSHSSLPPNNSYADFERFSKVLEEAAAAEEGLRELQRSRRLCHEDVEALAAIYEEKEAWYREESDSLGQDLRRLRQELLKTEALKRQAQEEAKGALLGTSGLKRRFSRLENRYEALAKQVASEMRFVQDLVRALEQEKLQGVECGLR

[11] = target: Maternal embryonic leucine zipper kinase (Homo sapiens, UniProt Q14680)
[12] = target: Serine/threonine-protein kinase 3 (Homo sapiens, UniProt Q13188);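 also: measured as one member of a kinome-wide kinase panel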
Misshapen-like kinase 1 = Misshapen-like kinase 1 (Homo sapiens, UniProt Q8N4C8);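 also: kinome panel screen with MINK as the panel member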
[13] = target: Cyclin-dependent kinase 9 (Homo sapiens, UniProt P50750);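 also: value from the CDK9 entry of a kinome-spanning kinase panel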
[14] = target: Tyrosine-protein kinase JAK3 (Homo sapiens, UniProt P52333)
Tyrosine-protein kinase JAK3, sequence (P52333 whole entry): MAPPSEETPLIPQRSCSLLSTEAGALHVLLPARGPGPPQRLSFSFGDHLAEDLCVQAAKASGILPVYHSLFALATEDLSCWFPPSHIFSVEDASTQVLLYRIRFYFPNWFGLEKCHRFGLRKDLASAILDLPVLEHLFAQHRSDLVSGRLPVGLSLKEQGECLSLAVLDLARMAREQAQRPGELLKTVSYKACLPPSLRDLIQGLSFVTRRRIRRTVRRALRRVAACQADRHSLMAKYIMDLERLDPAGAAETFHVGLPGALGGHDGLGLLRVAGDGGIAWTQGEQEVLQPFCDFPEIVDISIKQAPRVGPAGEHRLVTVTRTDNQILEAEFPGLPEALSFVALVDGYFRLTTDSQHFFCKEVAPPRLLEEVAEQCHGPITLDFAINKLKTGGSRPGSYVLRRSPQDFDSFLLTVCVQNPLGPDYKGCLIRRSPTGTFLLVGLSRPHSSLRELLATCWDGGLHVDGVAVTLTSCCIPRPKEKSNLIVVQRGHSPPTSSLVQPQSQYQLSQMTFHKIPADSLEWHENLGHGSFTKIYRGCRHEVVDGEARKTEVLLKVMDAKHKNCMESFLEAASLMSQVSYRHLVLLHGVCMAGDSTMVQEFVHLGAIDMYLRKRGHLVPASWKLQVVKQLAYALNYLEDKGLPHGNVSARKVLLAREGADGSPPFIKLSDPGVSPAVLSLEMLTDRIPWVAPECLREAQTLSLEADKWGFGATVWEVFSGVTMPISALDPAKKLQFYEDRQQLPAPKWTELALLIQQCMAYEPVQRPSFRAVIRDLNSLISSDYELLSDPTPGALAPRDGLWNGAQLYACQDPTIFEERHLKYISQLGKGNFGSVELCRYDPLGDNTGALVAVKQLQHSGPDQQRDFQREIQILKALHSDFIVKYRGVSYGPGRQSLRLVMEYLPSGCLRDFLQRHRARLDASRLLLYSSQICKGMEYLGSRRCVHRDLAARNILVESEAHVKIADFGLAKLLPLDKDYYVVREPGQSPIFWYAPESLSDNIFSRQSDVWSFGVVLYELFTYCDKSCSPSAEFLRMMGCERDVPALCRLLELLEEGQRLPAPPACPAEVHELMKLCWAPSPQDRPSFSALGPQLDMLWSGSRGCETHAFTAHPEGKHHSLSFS

[15] = target: Receptor-type tyrosine-protein kinase FLT3 (Homo sapiens, UniProt P36888);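 also: FLT3 was tested as one member of a kinome-wide kinase panel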
[16] = target: Dual specificity protein kinase CLK2 (Homo sapiens, UniProt P49760)
[17] = target: cAMP-dependent protein kinase catalytic subunit alpha (Homo sapiens, UniProt P17612)
[18] = target: Mitogen-activated protein kinase kinase kinase kinase 5 (Homo sapiens, UniProt Q9Y4K4);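 also: measured as one member of a kinome-spanning kinase panel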
[19] = target: Tyrosine-protein kinase SYK (Homo sapiens, UniProt P43405)
[20] = target: cAMP-dependent protein kinase catalytic subunit PRKX (Homo sapiens, UniProt P51817)
[21] = target: Cyclin-dependent kinase 7 (Homo sapiens, UniProt P50613);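 also: value comes from a kinome-wide kinase profiling panel in which CDK7 is one member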
Cyclin-dependent kinase 7, sequence (P50613 whole entry): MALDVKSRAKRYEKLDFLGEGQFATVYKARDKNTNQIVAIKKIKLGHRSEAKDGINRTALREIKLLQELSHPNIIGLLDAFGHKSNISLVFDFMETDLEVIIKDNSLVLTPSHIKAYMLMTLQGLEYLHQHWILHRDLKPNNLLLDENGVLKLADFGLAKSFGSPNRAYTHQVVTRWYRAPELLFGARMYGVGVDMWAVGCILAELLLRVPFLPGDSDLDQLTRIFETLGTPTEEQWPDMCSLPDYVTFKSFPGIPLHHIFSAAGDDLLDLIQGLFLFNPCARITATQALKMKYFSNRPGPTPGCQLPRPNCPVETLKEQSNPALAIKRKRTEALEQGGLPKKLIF

[22] = target: Serine/threonine-protein kinase 17A (Homo sapiens, UniProt Q9UEE5)
[23] = target: Glycogen synthase kinase-3 beta (Homo sapiens, UniProt P49841);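 also: value comes from a broad kinome profiling panel, with GSK3B as the panel member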
[24] = target: Serine/threonine-protein kinase PAK 4 (Homo sapiens, UniProt O96013);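 also: value obtained within a kinome profiling panel in which PAK4 was one of the panel members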
Serine/threonine-protein kinase PAK 4, sequence (O96013 whole entry): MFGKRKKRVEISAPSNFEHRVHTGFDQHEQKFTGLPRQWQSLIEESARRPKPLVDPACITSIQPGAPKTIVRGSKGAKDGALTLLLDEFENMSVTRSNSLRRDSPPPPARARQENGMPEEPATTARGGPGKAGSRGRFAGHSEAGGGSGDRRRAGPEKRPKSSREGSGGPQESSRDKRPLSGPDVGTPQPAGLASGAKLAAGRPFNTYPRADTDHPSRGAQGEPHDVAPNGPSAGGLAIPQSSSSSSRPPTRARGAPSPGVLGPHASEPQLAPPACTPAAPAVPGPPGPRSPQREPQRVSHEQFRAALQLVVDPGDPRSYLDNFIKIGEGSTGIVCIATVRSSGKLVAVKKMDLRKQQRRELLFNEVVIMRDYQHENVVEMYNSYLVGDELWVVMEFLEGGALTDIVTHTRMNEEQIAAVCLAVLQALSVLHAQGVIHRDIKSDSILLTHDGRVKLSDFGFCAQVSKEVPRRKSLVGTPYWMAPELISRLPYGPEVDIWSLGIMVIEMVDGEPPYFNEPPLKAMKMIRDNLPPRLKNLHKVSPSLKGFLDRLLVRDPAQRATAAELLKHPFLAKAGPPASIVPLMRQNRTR

[25] = target: Multidrug resistance protein CDR2 (Candida albicans (strain SC5314 / ATCC MYA-2876) (Yeast), UniProt P78595); assay: inhibition of Nile Red efflux via Candida CDR2 – S. cerevisiae AD1-8u, singleplex, Cherry Pick1 hits, dose response (AID 588604)
[26] = target: Melanin-concentrating hormone receptor 1 (Homo sapiens, UniProt Q99705); assay: Late-stage fluorescence-based counterscreen for antagonists of the G-protein coupled receptor 7 (GPR7): cell-based dose response assay to identify antagonists of the melanin-concentrating hormone receptor 1 (MCHR1) Set 5.
[27] = target: Neuropeptides B/W receptor type 1 (Homo sapiens, UniProt P48145); assay: human NPBW1 receptor blockade, IC50 – cell-based, fluorescence, dose response, set 5, late-stage follow-up (AID 588566)
[28] = target: Serine/threonine-protein kinase Chk1 (Homo sapiens, UniProt O14757);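 also: measured as one member of a kinome-wide kinase profiling panel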
Aurora kinase B = Aurora kinase B (Homo sapiens, UniProt Q96GD4)
[29] = target: G protein-coupled receptor kinase 5 (Homo sapiens, UniProt P34947); assay: Navigating the Kinome. Panel member name: GPRK5
[30] = target: Glycogen synthase kinase-3 alpha (Homo sapiens, UniProt P49840);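 also: GSK3A result taken from a broad kinome-wide kinase panel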
[31] = target: Calcium/calmodulin-dependent protein kinase type II subunit alpha (Homo sapiens, UniProt Q9UQM7); assay: Navigating the Kinome. Panel member name: CAMK2A
[32] = target: ALK tyrosine kinase receptor (Homo sapiens, UniProt Q9UM73);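 also: ALK tested as one member of a kinase panel screen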
[33] = target: Fibroblast growth factor receptor 1 (Homo sapiens, UniProt P11362)
[34] = target: Tyrosine-protein kinase BTK (Homo sapiens, UniProt Q06187)
LIM domain kinase 1 = LIM domain kinase 1 (Homo sapiens, UniProt P53667); assay: Navigating the Kinome. Panel member name: LIMK1
[35] = target: Mitogen-activated protein kinase 14 (Homo sapiens, UniProt Q16539);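 also: part of a kinome-wide panel, MAPK14 entry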
[36] = target: Tyrosine-protein kinase Lck (Homo sapiens, UniProt P06239);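 also: lck was assayed as one member of a kinase panel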
[37] = target: Leukocyte tyrosine kinase receptor (Homo sapiens, UniProt P29376); assay: Navigating the Kinome. Panel member name: LTK
Focal adhesion kinase 1 = Focal adhesion kinase 1 (Homo sapiens, UniProt Q05397);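 also: measured as one member of a kinome panel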
[38] = target: Mitogen-activated protein kinase 8 (Homo sapiens, UniProt P45983);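 also: value comes from one member of a kinome-wide kinase profiling panel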
[39] = target: Serine/threonine-protein kinase TAO1 (Homo sapiens, UniProt Q7L7X3)
[40] = target: Tyrosine-protein kinase Fyn (Homo sapiens, UniProt P06241)
Activin receptor type-1 = Activin receptor type-1 (Homo sapiens, UniProt Q04771); assay: Navigating the Kinome. Panel member name: ACVR1

Mitogen-activated protein kinase kinase kinase kinase 4, sequence (O95819 whole entry): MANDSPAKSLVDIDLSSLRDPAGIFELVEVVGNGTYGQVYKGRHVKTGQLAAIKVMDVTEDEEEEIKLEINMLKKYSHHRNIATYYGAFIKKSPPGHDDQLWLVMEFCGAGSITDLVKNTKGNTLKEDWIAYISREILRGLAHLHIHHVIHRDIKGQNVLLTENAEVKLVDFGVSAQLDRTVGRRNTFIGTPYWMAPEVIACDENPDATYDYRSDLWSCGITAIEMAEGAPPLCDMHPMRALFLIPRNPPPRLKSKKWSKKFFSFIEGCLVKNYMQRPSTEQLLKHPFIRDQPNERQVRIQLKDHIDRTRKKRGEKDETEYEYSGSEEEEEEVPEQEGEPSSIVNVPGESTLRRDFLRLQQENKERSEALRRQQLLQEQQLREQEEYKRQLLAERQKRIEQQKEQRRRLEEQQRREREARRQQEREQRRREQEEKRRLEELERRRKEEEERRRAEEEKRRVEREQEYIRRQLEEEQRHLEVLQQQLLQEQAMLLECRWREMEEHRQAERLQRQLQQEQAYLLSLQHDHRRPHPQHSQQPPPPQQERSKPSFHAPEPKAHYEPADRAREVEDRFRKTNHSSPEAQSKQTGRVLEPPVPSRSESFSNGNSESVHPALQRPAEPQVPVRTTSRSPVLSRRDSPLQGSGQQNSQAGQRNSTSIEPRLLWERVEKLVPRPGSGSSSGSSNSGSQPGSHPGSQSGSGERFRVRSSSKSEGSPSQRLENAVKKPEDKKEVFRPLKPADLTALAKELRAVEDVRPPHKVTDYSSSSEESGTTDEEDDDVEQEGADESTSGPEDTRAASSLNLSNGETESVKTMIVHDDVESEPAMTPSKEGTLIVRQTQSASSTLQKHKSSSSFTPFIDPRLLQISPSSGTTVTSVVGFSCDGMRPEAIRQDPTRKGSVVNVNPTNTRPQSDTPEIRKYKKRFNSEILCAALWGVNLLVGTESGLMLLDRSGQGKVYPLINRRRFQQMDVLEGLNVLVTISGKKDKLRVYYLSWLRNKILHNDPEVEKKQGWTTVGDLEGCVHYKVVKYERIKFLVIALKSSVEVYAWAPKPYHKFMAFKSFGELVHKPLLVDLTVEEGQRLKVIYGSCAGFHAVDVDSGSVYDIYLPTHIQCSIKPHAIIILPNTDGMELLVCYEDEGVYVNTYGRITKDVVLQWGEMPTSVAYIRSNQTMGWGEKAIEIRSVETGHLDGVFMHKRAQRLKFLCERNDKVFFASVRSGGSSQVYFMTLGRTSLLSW

- Ki [1]: 2 µM (active)
- Ki [2]: > 3.16 µM (inactive)
- Ki [3]: 0.126 µM (active)
- Ki [4]: 2 µM (active)
- Ki [5]: 2 µM (active)
- Ki [6]: > 3.98 µM (inactive)
- Ki [7]: 0.398 µM (active)
- Ki [8]: 1 µM (active)
- Ki [9]: 0.158 µM (active)
- Ki [11]: 0.158 µM (active)
- Ki [12]: 0.501 µM (active)
- Ki (Misshapen-like kinase 1): > 2.51 µM (inactive)
- Ki [13]: 0.2 µM (active)
- Ki [14]: 1 µM (active)
- Ki [15]: 0.0631 µM (active)
- Ki [16]: 3.16 µM (active)
- Ki [17]: 3.98 µM (active)
- Ki [18]: 2.51 µM (active)
- Ki [19]: 0.501 µM (active)
- Ki [20]: 1 µM (active)
- Ki [21]: 1.58 µM (active)
- Ki [22]: 0.02 µM (active)
- Ki [23]: 0.0158 µM (active)
- Ki [24]: 1 µM (active)
SMILES: O=C(O)c1ccccc1Nc1ncnc(Nc2ccc3cn[nH]c3c2)n1
- Ki [10]: 0.2 µM (active)

SMILES: CCCCSC1=N/C(=C/c2ccsc2)C(=O)N1c1ccccc1
- EC50 [25]: 10.3 µM (active)

- IC50 [26]: 10.4 µM (inactive)
- IC50 [27]: 3.22 µM (active)
SMILES: O=c1c(Cl)c(Oc2ccc3c(c2)CCO3)cnn1Cc1cccc2ccccc12

- Ki [1]: > 5.01 µM (inactive)
- Ki [28]: 0.398 µM (active)
- Ki (Aurora kinase B): > 3.98 µM (inactive)
- Ki [29]: > 3.98 µM (inactive)
- Ki [3]: 2 µM (active)
- Ki [4]: > 3.98 µM (inactive)
- Ki [6]: > 3.98 µM (inactive)
- Ki [7]: > 3.98 µM (inactive)
- Ki [30]: > 3.98 µM (inactive)
- Ki [8]: 2.51 µM (active)
- Ki [31]: > 3.98 µM (inactive)
- Ki [32]: > 6.31 µM (inactive)
- Ki [33]: > 3.98 µM (inactive)
- Ki [34]: > 6.31 µM (inactive)
- Ki (LIM domain kinase 1): 0.794 µM (active)
- Ki [35]: > 3.98 µM (inactive)
- Ki [14]: > 5.01 µM (inactive)
- Ki [36]: > 6.31 µM (inactive)
- Ki [37]: 2 µM (active)
- Ki [21]: > 3.98 µM (inactive)
- Ki (Focal adhesion kinase 1): > 6.31 µM (inactive)
- Ki [38]: > 5.01 µM (inactive)
- Ki [39]: > 6.31 µM (inactive)
- Ki [40]: > 6.31 µM (inactive)
- Ki (Activin receptor type-1): > 3.98 µM (inactive)
- Ki [24]: > 5.01 µM (inactive)
SMILES: CCN(CC)CCNc1ccc(O)c2ccccc12
- Ki [10]: > 5.01 µM (inactive)
